The text below walks through data of US9040545B2, “Heterocyclyl pyrazolopyrimidine analogues as selective JAK inhibitors” (Cellzome Limited, priority 2010, dated 2015).

Some results are limits rather than exact numbers.

This test has as its target T1, JAK3 (Homo sapiens, UniProt P52333).
T1 construct: endogenous in cells; host or cells: mixed Molt4/Ramos lysate (1:2)
T1 sequence (P52333 1-1124): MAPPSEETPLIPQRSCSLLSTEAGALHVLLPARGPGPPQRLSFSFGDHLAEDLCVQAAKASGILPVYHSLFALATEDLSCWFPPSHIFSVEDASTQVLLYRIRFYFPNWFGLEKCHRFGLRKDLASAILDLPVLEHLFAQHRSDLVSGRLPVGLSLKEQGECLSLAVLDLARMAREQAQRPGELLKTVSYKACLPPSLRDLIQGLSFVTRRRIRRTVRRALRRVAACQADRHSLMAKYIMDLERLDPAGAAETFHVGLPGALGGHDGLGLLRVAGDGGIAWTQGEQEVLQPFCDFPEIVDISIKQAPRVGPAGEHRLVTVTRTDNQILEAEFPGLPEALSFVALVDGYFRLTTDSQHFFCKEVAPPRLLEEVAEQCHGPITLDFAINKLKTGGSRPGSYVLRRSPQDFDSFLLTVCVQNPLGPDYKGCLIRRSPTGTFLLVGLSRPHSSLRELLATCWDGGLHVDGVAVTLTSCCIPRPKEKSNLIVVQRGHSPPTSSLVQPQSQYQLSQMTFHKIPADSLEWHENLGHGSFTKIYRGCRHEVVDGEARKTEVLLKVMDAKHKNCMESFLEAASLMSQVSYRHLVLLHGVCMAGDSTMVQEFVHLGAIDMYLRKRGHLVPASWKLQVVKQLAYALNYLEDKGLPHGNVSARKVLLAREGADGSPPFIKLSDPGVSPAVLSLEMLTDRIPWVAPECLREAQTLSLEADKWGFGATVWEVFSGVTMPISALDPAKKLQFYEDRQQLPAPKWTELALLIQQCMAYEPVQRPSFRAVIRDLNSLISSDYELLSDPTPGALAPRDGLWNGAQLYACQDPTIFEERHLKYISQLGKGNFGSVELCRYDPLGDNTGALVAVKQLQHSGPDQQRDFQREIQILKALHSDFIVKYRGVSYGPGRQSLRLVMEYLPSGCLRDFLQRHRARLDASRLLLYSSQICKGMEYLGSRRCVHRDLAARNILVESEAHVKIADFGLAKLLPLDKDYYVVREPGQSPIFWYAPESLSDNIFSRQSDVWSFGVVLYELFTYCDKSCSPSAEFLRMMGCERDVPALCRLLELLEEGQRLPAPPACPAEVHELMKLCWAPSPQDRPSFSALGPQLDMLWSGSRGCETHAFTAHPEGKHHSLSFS
The test can be described thus: Kinobeads assay, JAK3. The format is binding. Particulars: mixed Molt4/Ramos lysate, read-out: Inhibition values (IC50) JAK3. As for the experimental part: The compounds of the present invention as described in the previous examples were tested in a Kinobeads™ assay as described for ZAP-70 (WO-A 2007/137867). Briefly, test compounds (at various concentrations) and the affinity matrix with the immobilized aminopyrido-pyrimidine ligand 24 were added to cell lysate aliquots and allowed to bind to the proteins in the lysate sample. After the incubation time the beads with captured proteins were separated from the lysate. Bound proteins were then eluted and the presence of JAK2 and JAK3 was detected and quantified using specific antibodies in a dot blot procedure and the Odyssey infrared detection system. Dose response curves for individual kinases were generated and IC50 values calculated. Kinobeads™ assays for ZAP-70 (WO-A 2007/137867) and for kinase selectivity profiling (WO-A 2006/134056) have been previously described.
The affinity matrix was washed two times with 15 mL of 1×DP buffer containing 0.2% NP40 (IGEPAL® CA-630, Sigma, #I3021) and then resuspended in 1×DP buffer containing 0.2% NP40 (3% beads slurry).
5×DP buffer 250 mM Tris-HCl pH 7.4, 25% Glycerol, 7.5 mM MgCl2, 750 mM NaCl, 5 mM Na3VO4; filter the 5×DP buffer through a 0.22 μm filter and store in aliquots at −80° C. The 5×DP buffer is diluted with H2O to 1×DP buffer containing 1 mM DTT and 25 mM NaF.
Stock solutions of test compounds were prepared in DMSO. In a 96 well plate 30 μL solution of diluted test compounds at 5 mM in DMSO were prepared. Starting with this solution a 1:3 dilution series (9 steps) was prepared. For control experiments (no test compound) a buffer containing 2% DMSO was used.
Molt4 cells (ATCC catalogue number CRL-1582) and Ramos cells (ATCC catalogue number CRL-1596) were grown in 1 L Spinner flasks (Integra Biosciences, #182101) in suspension in RPMI 1640 medium (Invitrogen, #21875-034) supplemented with 10% Fetal Bovine Serum (Invitrogen) at a density between 0.15×106 and 1.2×10^6 cells/mL. Cells were harvested by centrifugation, washed once with 1×PBS buffer (Invitrogen, #14190-094) and cell pellets were frozen in liquid nitrogen and subsequently stored at −80° C. Cells were homogenized in a Potter S homogenizer in lysis buffer: 50 mM Tris-HCl, 0.8% NP40, 5% glycerol, 150 mM NaCl, 1.5 mM MgCl2, 25 mM NaF, 1 mM sodium vanadate, 1 mM DTT, pH 7.5. One complete EDTA-free tablet (protease inhibitor cocktail, Roche Diagnostics, 1873580) per 25 mL buffer was added. The material was dounced 10 times using a mechanized POTTER S, transferred to 50 mL falcon tubes, incubated for 30 minutes on ice and spun down for 10 minutes at 20,000 g at 4° C. (10,000 rpm in Sorvall SLA600, precooled). The supernatant was transferred to an ultracentrifuge (UZ)-polycarbonate tube (Beckmann, 355654) and spun for 1 hour at 100,000 g at 4° C. (33.500 rpm in Ti50.2, precooled). The supernatant was transferred again to a fresh 50 mL falcon tube, the protein concentration was determined by a Bradford assay (BioRad) and samples containing 50 mg of protein per aliquot were prepared. The samples were immediately used for experiments or frozen in liquid nitrogen and stored frozen at −80° C.
Cell lysate (approximately 50 mg protein per plate) was thawed in a water bath at room temperature and then stored on ice. To the thawed cell lysate 1×DP 0.8% NP40 buffer containing protease inhibitors (1 tablet for 25 mL buffer; EDTA-free protease inhibitor cocktail; Roche Diagnostics 1873580) was added in order to reach a final protein concentration of 10 mg/mL total protein. The diluted cell lysate was stored on ice. Mixed Molt4/Ramos lysate was prepared by combining one volume of Molt4 lysate and two volumes of Ramos lysate (ratio 1:2).
To a 96 well filter plate (Multiscreen HTS, BV Filter Plates, Millipore #MSBVN1250) were added per well: 100 μL affinity matrix (3% beads slurry), 3 μL of compound solution, and 50 μL of diluted lysate. […]
Consider `C[C@@H]1COCCN1c1cccc(Cn2ncc3cnc(Nc4cnn(C)c4)nc32)n1` [Example 1, (R)—N-(1-Methyl-1H-pyrazol-4-yl)-1-((6-(3-methylmorpholino)pyridin-2-yl)methyl)-1H-pyrazolo[3,4-d]pyrimidin-6-amine], for which the IC50 – broadly, the concentration needed to halve the response being measured – was under 100 nM.
In the case of `Cn1cc(Nc2ncc3cnn(Cc4cccc(N5CCOCC5)c4)c3n2)cn1` [Example 2, N-(1-Methyl-1H-pyrazol-4-yl)-1-(3-morpholinobenzyl)-1H-pyrazolo[3,4-d]pyrimidin-6-amine], the IC50 is under 100 nM.
For the compound `Cn1cc(Nc2ncc3cnn(Cc4cccc(N5CCOCC5)n4)c3n2)cn1` [Example 3, N-(1-Methyl-1H-pyrazol-4-yl)-1-((6-morpholinopyridin-2-yl)methyl)-1H-pyrazolo[3,4-d]pyrimidin-6-amine], the IC50 is under 100 nM.
The same measure for `CN(C)CCCn1cc(Nc2ncc3cnn(Cc4cccc(N5CCOCC5)c4)c3n2)cn1` [Example 4, N-(1-(3-(Dimethylamino)propyl)-1H-pyrazol-4-yl)-1-(3-morpholinobenzyl)-1H-pyrazolo[3,4-d]pyrimidin-6-amine]: under 100 nM.
Take `OCCn1cc(Nc2ncc3cnn(Cc4cccc(N5CCOCC5)c4)c3n2)cn1` [Example 5, 2-(4-((1-(3-Morpholinobenzyl)-1H-pyrazolo[3,4-d]pyrimidin-6-yl)amino)-1H-pyrazol-1-yl)ethanol]: the IC50 is under 100 nM.
On to `Cn1cc(Nc2ncc3cnn(Cc4cccc(C(=O)N5CCOCC5)c4)c3n2)cn1` [Example 6, (3-((6-((1-Methyl-1H-pyrazol-4-yl)amino)-1H-pyrazolo[3,4-d]pyrimidin-1-yl)methyl)phenyl)(morpholino)methanone], for which the IC50 is under 100 nM.
The same measure for `Cn1cc(Nc2ncc3cnn(Cc4cccc(CN5CCOCC5)c4)c3n2)cn1` [Example 7, N-(1-Methyl-1H-pyrazol-4-yl)-1-(3-(morpholinomethyl)benzyl)-1H-pyrazolo[3,4-d]pyrimidin-6-amine]: under 100 nM; for `Cn1cc(Nc2ncc3cnn(Cc4cccc(N5CCCCC5)c4)c3n2)cn1` [Example 8, N-(1-Methyl-1H-pyrazol-4-yl)-1-(3-(piperidin-1-yl)benzyl)-1H-pyrazolo[3,4-d]pyrimidin-6-amine]: 100 to 1000 nM.
As to `Cn1cc(Nc2ncc3cnn(Cc4cccc(C5CCOCC5)c4)c3n2)cn1` [Example 9, N-(1-Methyl-1H-pyrazol-4-yl)-1-(3-(tetrahydro-2H-pyran-4-yl)benzyl)-1H-pyrazolo[3,4-d]pyrimidin-6-amine], the IC50 is under 100 nM.
Turning to `CN1CCN(c2cccc(Cn3ncc4cnc(Nc5cnn(C)c5)nc43)c2)CC1` [Example 10, N-(1-Methyl-1H-pyrazol-4-yl)-1-(3-(4-methylpiperazin-1-yl)benzyl)-1H-pyrazolo[3,4-d]pyrimidin-6-amine], the IC50 was under 100 nM.
Take `Cc1c(Cn2ncc3cnc(Nc4cnn(C)c4)nc32)cccc1N1CCOCC1` [Example 11, N-(1-Methyl-1H-pyrazol-4-yl)-1-(2-methyl-3-morpholinobenzyl)-1H-pyrazolo[3,4-d]pyrimidin-6-amine]: the IC50 is under 100 nM.
Regarding `CNC(=O)Cn1cc(Nc2ncc3cnn(Cc4cccc(N5CCOCC5)c4)c3n2)cn1` [Example 12, N-Methyl-2-(4-((1-(3-morpholinobenzyl)-1H-pyrazolo[3,4-d]pyrimidin-6-yl)amino)-1H-pyrazol-1-yl)acetamide], the IC50 was under 100 nM.
For `CCOC(=O)C1CCCN(c2cccc(Cn3ncc4cnc(Nc5cnn(C)c5)nc43)c2)C1` (centres unmarked) [Example 13, Ethyl 1-(3-((6-((1-methyl-1H-pyrazol-4-yl)amino)-1H-pyrazolo[3,4-d]pyrimidin-1-yl)methyl)phenyl)piperidine-3-carboxylate], the IC50 is 100 to 1000 nM.
With `NC(=O)CCn1cc(Nc2ncc3cnn(Cc4cccc(N5CCOCC5)c4)c3n2)cn1` [Example 14, 3-(4-((1-(3-Morpholinobenzyl)-1H-pyrazolo[3,4-d]pyrimidin-6-yl)amino)-1H-pyrazol-1-yl)propanamide], the IC50 was under 100 nM.
Consider `Cn1cc(Nc2ncc3cnn(Cc4cc(N5CCOCC5)ccc4F)c3n2)cn1` [Example 15, 1-(2-Fluoro-5-morpholinobenzyl)-N-(1-methyl-1H-pyrazol-4-yl)-1H-pyrazolo[3,4-d]pyrimidin-6-amine], for which the IC50 is 100 to 1000 nM.
`CN(C)C(=O)CCn1cc(Nc2ncc3cnn(Cc4cccc(N5CCOCC5)c4)c3n2)cn1` [Example 16, N,N-Dimethyl-3-(4-((1-(3-morpholinobenzyl)-1H-pyrazolo[3,4-d]pyrimidin-6-yl)amino)-1H-pyrazol-1-yl)propanamide]: the concentration for half-maximal inhibition (IC50) was under 100 nM.
For `Cn1cc(Nc2ncc3cnn(Cc4c(F)c(F)cc(N5CCOCC5)c4F)c3n2)cn1` [Example 17, N-(1-Methyl-1H-pyrazol-4-yl)-1-(2,3,6-trifluoro-5-morpholinobenzyl)-1H-pyrazolo[3,4-d]pyrimidin-6-amine], the IC50 is under 100 nM.
For the compound `OCCCn1cc(Nc2ncc3cnn(Cc4cccc(N5CCOCC5)c4)c3n2)cn1` [Example 18, 3-(4-((1-(3-Morpholinobenzyl)-1H-pyrazolo[3,4-d]pyrimidin-6-yl)amino)-1H-pyrazol-1-yl)propan-1-ol], the IC50 is under 100 nM.
In the case of `Cn1cc(Nc2ncc3cnn(Cc4cccc(N5CCC(F)(F)CC5)c4)c3n2)cn1` [Example 19, 1-(3-(4,4-Difluoropiperidin-1-yl)benzyl)-N-(1-methyl-1H-pyrazol-4-yl)-1H-pyrazolo[3,4-d]pyrimidin-6-amine], the IC50 lay within 100 to 1000 nM.
As for `O=C(CCn1cc(Nc2ncc3cnn(Cc4cccc(N5CCOCC5)c4)c3n2)cn1)N1CCCCC1` [Example 20, 3-(4-((1-(3-Morpholinobenzyl)-1H-pyrazolo[3,4-d]pyrimidin-6-yl)amino)-1H-pyrazol-1-yl)-1-(piperidin-1-yl)propan-1-one], the IC50 was under 100 nM.
